Calls of active or inactive are those of the source. Rule as the data show it, for most assays here: actives have a measured Kd and inactives only a lower limit.
Experiments:
[1] = target: Mitotic checkpoint serine/threonine-protein kinase BUB1 (Homo sapiens, UniProt O43683)
dCTP pyrophosphatase 1 = target: T1, dCTP pyrophosphatase 1 (Homo sapiens, UniProt Q9H773)
T1 sequence (Q9H773 whole entry): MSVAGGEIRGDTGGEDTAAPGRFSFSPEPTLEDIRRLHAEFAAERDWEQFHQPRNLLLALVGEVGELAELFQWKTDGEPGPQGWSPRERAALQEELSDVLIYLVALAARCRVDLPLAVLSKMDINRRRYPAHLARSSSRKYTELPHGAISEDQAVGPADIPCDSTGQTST

[2] = target: Putative heat shock protein HSP 90-beta 2 (Homo sapiens, UniProt Q58FF8)
Sequence of Putative heat shock protein HSP 90-beta 2 (Q58FF8 whole entry): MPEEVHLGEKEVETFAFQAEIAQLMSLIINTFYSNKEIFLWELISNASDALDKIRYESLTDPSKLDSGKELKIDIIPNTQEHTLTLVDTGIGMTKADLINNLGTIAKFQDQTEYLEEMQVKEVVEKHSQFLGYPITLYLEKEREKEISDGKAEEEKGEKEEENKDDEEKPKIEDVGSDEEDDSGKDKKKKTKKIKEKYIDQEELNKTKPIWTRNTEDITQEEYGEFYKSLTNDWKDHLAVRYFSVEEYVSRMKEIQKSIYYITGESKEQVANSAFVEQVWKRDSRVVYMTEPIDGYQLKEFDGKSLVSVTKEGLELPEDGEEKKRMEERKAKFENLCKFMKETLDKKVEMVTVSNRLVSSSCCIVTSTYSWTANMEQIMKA

[3] = target: T2, Dual specificity mitogen-activated protein kinase kinase 5 (Homo sapiens, UniProt Q13163)
T2 sequence (Q13163 whole entry): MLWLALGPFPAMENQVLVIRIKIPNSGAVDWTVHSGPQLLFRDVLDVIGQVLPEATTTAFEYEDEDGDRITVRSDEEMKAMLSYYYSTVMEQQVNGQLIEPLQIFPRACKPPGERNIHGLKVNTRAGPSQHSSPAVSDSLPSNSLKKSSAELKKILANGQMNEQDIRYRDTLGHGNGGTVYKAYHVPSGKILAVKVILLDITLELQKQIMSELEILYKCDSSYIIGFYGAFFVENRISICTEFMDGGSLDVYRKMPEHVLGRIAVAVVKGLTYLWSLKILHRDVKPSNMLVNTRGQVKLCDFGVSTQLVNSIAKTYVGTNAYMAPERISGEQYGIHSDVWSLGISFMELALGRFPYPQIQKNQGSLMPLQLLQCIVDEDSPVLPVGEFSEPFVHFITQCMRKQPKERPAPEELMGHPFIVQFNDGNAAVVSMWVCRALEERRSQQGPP

[4] = target: T3, Mitogen-activated protein kinase 15 (Homo sapiens, UniProt Q8TD08)
T3 sequence (Q8TD08 whole entry): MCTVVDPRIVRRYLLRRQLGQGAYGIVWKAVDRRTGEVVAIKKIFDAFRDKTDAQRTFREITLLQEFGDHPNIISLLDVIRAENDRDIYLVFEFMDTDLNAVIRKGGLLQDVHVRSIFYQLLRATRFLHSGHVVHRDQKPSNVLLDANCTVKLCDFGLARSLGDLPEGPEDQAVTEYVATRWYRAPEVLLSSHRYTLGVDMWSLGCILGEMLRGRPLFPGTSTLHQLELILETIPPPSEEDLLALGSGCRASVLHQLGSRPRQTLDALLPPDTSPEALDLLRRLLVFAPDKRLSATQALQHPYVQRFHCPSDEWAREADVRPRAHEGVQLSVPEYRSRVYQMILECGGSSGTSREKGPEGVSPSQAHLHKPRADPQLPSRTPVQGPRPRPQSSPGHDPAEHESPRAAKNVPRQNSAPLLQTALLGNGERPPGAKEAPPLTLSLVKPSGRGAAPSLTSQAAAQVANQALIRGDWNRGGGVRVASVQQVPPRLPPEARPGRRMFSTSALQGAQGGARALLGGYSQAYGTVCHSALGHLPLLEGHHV

[5] = target: T4, ATP-dependent 6-phosphofructokinase, platelet type (Homo sapiens, UniProt Q01813)
T4 sequence (Q01813 whole entry): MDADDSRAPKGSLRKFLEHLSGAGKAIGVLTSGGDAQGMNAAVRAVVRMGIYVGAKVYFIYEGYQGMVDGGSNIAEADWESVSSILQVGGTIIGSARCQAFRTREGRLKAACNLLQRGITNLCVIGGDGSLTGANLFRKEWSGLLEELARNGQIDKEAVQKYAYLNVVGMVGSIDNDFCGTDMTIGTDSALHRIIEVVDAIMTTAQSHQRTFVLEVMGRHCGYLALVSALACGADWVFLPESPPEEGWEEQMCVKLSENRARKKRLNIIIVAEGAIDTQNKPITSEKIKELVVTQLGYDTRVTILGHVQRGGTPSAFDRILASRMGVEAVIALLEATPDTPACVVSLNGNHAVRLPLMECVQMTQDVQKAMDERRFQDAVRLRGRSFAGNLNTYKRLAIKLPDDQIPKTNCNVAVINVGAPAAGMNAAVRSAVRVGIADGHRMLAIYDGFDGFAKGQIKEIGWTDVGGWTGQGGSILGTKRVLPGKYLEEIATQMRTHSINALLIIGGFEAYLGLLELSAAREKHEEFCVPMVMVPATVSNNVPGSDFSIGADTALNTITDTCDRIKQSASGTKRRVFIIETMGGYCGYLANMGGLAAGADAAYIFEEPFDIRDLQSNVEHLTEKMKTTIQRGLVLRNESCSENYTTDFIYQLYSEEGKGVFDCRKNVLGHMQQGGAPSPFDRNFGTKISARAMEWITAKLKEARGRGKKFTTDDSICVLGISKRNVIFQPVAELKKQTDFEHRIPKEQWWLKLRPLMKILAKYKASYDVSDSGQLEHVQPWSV

[6] = target: Protein-tyrosine kinase 6 (Homo sapiens, UniProt Q13882)
Sequence of Protein-tyrosine kinase 6 (Q13882 whole entry): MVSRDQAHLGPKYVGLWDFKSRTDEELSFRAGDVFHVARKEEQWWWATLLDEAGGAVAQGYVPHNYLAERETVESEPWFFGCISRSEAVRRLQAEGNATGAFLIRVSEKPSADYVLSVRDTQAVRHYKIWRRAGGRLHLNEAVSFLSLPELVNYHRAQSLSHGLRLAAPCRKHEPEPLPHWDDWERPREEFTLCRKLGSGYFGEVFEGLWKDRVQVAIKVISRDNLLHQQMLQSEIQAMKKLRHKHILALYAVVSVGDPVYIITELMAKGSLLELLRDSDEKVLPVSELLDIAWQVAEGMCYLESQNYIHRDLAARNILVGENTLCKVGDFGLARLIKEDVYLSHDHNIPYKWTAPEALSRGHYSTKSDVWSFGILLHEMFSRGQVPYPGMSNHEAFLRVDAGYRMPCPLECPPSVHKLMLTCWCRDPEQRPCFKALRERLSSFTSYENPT

[7] = target: T5, Serine/threonine-protein kinase TBK1 (Homo sapiens, UniProt Q9UHD2)
T5 sequence (Q9UHD2 whole entry): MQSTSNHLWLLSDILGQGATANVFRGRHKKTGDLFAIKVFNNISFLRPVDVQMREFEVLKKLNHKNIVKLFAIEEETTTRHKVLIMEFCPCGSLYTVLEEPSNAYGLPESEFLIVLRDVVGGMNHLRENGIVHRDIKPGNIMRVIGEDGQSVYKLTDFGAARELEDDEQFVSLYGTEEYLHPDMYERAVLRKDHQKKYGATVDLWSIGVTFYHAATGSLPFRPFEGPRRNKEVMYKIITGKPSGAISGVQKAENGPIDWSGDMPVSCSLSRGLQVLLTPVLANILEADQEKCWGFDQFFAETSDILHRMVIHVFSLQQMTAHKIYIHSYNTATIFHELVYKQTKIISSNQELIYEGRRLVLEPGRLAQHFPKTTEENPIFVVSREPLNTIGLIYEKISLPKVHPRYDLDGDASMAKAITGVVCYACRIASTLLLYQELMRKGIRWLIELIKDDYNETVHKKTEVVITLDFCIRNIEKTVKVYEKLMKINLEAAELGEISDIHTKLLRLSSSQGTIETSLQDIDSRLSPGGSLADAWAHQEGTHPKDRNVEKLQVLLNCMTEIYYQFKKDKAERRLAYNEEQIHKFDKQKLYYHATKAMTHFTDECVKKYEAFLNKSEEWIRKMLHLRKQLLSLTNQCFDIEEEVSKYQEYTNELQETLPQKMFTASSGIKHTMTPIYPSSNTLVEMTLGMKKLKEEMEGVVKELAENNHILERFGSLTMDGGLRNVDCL
Also: in the data inactive means no Kd found up to 30 µM.

Sequence of Mitotic checkpoint serine/threonine-protein kinase BUB1 (O43683 whole entry): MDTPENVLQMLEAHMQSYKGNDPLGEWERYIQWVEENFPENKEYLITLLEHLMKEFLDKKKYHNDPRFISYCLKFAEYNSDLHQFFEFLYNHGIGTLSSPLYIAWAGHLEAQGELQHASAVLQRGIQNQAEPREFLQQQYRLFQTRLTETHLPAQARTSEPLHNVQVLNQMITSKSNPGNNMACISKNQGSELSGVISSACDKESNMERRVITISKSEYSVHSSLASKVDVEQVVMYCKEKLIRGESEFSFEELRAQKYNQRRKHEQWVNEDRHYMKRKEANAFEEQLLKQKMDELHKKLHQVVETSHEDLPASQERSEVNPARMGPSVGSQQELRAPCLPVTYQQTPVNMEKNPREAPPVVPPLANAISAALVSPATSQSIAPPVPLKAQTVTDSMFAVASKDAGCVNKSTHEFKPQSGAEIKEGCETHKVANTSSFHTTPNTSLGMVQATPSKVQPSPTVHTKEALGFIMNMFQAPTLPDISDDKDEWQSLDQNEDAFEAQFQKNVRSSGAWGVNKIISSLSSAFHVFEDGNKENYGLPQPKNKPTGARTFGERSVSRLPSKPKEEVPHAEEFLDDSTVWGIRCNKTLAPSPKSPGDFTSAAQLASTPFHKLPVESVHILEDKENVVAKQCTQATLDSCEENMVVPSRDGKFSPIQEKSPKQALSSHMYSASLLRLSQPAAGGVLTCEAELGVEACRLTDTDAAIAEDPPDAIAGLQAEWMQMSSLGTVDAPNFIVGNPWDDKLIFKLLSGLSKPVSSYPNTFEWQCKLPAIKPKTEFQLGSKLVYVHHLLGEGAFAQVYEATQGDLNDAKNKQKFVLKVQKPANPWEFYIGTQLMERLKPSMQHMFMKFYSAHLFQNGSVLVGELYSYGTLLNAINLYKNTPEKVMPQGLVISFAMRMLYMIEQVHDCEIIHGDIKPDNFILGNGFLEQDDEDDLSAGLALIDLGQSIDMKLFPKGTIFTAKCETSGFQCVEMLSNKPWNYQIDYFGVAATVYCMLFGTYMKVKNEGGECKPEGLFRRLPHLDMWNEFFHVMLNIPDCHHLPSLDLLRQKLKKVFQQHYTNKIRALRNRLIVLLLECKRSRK

## CC[C@@](C)(Nc1ccnc(-c2c[nH]c3ncccc23)n1)C(=O)NCC(F)(F)F [DECERNOTINIB]
[1]
  Kd: > 30 µM (inactive)
dCTP pyrophosphatase 1
  Kd: > 30 µM (inactive)
[2]
  Kd: > 30 µM (inactive)
[3]
  Kd: > 30 µM (inactive)
[4]
  Kd: > 30 µM (inactive)
[5]
  Kd: > 30 µM (inactive)
[6]
  Kd: > 30 µM (inactive)
[7]
  Kd: > 30 µM (inactive)

## O=c1[nH]c([C@@H]2CCCN2)nc2c1oc1ccc(Cl)cc12
[1]
  Kd: > 30 µM (inactive)
dCTP pyrophosphatase 1
  Kd: > 30 µM (inactive)
[2]
  Kd: > 30 µM (inactive)
[3]
  Kd: > 30 µM (inactive)
[4]
  Kd: > 30 µM (inactive)
[5]
  Kd: > 30 µM (inactive)
[6]
  Kd: > 30 µM (inactive)
[7]
  Kd: > 30 µM (inactive)

## Cc1c(Cn2c(C)nc3c(C(=O)O)cc(N4CCOCC4)cc32)cccc1C(F)(F)F [GSK-2636771]
[1]
  Kd: > 30 µM (inactive)
dCTP pyrophosphatase 1
  Kd: > 30 µM (inactive)
[2]
  Kd: > 30 µM (inactive)
[3]
  Kd: > 30 µM (inactive)
[4]
  Kd: > 30 µM (inactive)
[5]
  Kd: > 30 µM (inactive)
[6]
  Kd: > 30 µM (inactive)
[7]
  Kd: > 30 µM (inactive)

## Cn1cc(-c2[nH]c3cc(NC(=O)[C@H](N)C4CCCCC4)cc4c3c2C=NNC4=O)cn1
[1]
  Kd: > 30 µM (inactive)
dCTP pyrophosphatase 1
  Kd: > 30 µM (inactive)
[2]
  Kd: > 30 µM (inactive)
[3]
  Kd: 2.19 µM (active)
[4]
  Kd: > 30 µM (inactive)
[5]
  Kd: > 30 µM (inactive)
[6]
  Kd: > 30 µM (inactive)
[7]
  Kd: > 30 µM (inactive)

## NC(=O)c1ccc(N(C(N)=O)c2c(F)cccc2F)nc1-c1ccc(F)cc1F [VX-702]
[1]
  Kd: > 30 µM (inactive)
dCTP pyrophosphatase 1
  Kd: > 30 µM (inactive)
[2]
  Kd: > 30 µM (inactive)
[3]
  Kd: > 30 µM (inactive)
[4]
  Kd: > 30 µM (inactive)
[5]
  Kd: > 30 µM (inactive)
[6]
  Kd: > 30 µM (inactive)
[7]
  Kd: > 30 µM (inactive)

## COCCN1CCN(Cc2ccc(-c3n[nH]c4c3C(=O)c3c(NC(=O)NN5CCOCC5)cccc3-4)cc2)CC1 [RGB-286638]
[1]
  Kd: > 30 µM (inactive)
dCTP pyrophosphatase 1
  Kd: > 30 µM (inactive)
[2]
  Kd: > 30 µM (inactive)
[3]
  Kd: 0.535 µM (active)
[4]
  Kd: > 30 µM (inactive)
[5]
  Kd: > 30 µM (inactive)
[6]
  Kd: > 30 µM (inactive)
[7]
  Kd: 2.01 µM (active)

## CCc1nc(C(N)=O)c(Nc2ccc(N3CCC(N4CCN(C)CC4)CC3)c(OC)c2)nc1NC1CCOCC1 [GILTERITINIB]
[1]
  Kd: 0.191 µM (active)
dCTP pyrophosphatase 1
  Kd: > 30 µM (inactive)
[2]
  Kd: > 30 µM (inactive)
[3]
  Kd: 2.04 µM (active)
[4]
  Kd: 0.263 µM
[5]
  Kd: > 30 µM (inactive)
[6]
  Kd: > 30 µM (inactive)
[7]
  Kd: > 30 µM (inactive)

## CCN1CCN(Cc2ccc(Nc3ncc(F)c(-c4cc(F)c5nc(C)n(C(C)C)c5c4)n3)nc2)CC1 [ABEMACICLIB]
[1]
  Kd: > 30 µM (inactive)
dCTP pyrophosphatase 1
  Kd: > 30 µM (inactive)
[2]
  Kd: > 30 µM (inactive)
[3]
  Kd: > 30 µM (inactive)
[4]
  Kd: > 30 µM (inactive)
[5]
  Kd: > 30 µM (inactive)
[6]
  Kd: > 30 µM (inactive)
[7]
  Kd: > 30 µM (inactive)

## COc1cccc(Nc2ncnn3ccc(CN4CC[C@@H](N)[C@H](O)C4)c23)c1 [BMS-690514]
[1]
  Kd: > 30 µM (inactive)
dCTP pyrophosphatase 1
  Kd: > 30 µM (inactive)
[2]
  Kd: > 30 µM (inactive)
[3]
  Kd: 0.972 µM (active)
[4]
  Kd: > 30 µM (inactive)
[5]
  Kd: > 30 µM (inactive)
[6]
  Kd: > 30 µM (inactive)
[7]
  Kd: > 30 µM (inactive)

## O=C(NOC[C@H](O)CO)c1ccc(F)c(F)c1Nc1ccc(I)cc1F [MIRDAMETINIB]
[1]
  Kd: > 30 µM (inactive)
dCTP pyrophosphatase 1
  Kd: > 30 µM (inactive)
[2]
  Kd: > 30 µM (inactive)
[3]
  Kd: 0.808 µM (active)
[4]
  Kd: > 30 µM (inactive)
[5]
  Kd: > 30 µM (inactive)
[6]
  Kd: > 30 µM (inactive)
[7]
  Kd: > 30 µM (inactive)

## O=C(NC[C@H](O)CO)c1ccncc1Nc1ccc(I)cc1F [PIMASERTIB]
[1]
  Kd: > 30 µM (inactive)
dCTP pyrophosphatase 1
  Kd: > 30 µM (inactive)
[2]
  Kd: > 30 µM (inactive)
[3]
  Kd: > 30 µM (inactive)
[4]
  Kd: > 30 µM (inactive)
[5]
  Kd: > 30 µM (inactive)
[6]
  Kd: > 30 µM (inactive)
[7]
  Kd: > 30 µM (inactive)

## COc1cc2nccc(Oc3ccc(NC(=O)C4(C(=O)Nc5ccc(F)cc5)CC4)cc3)c2cc1OC [CABOZANTINIB]
[1]
  Kd: > 30 µM (inactive)
dCTP pyrophosphatase 1
  Kd: > 30 µM (inactive)
[2]
  Kd: > 30 µM (inactive)
[3]
  Kd: 2.39 µM (active)
[4]
  Kd: > 30 µM (inactive)
[5]
  Kd: > 30 µM (inactive)
[6]
  Kd: 1.76 µM (active)
[7]
  Kd: > 30 µM (inactive)

## C[C@@H]1COC(Nc2ccc3ncnc(Nc4ccc(OCc5nccs5)c(Cl)c4)c3c2)=N1 [VARLITINIB]
[1]
  Kd: > 30 µM (inactive)
dCTP pyrophosphatase 1
  Kd: > 30 µM (inactive)
[2]
  Kd: > 30 µM (inactive)
[3]
  Kd: > 30 µM (inactive)
[4]
  Kd: > 30 µM (inactive)
[5]
  Kd: > 30 µM (inactive)
[6]
  Kd: > 30 µM (inactive)
[7]
  Kd: > 30 µM (inactive)

## Cc1c(NC(=O)OC[C@@H]2COCCN2)cn2ncnc(Nc3ccc4c(cnn4Cc4cccc(F)c4)c3)c12 [AC-480]
[1]
  Kd: > 30 µM (inactive)
dCTP pyrophosphatase 1
  Kd: > 30 µM (inactive)
[2]
  Kd: > 30 µM (inactive)
[3]
  Kd: 5.93 µM
[4]
  Kd: > 30 µM (inactive)
[5]
  Kd: > 30 µM (inactive)
[6]
  Kd: > 30 µM (inactive)
[7]
  Kd: > 30 µM (inactive)

## COc1ccc(-c2ccc3ncc4c(c3c2)n(-c2ccc(N3CCNCC3)c(C(F)(F)F)c2)c(=O)n4C)cn1 [BGT-226 FREE BASE]
[1]
  Kd: > 30 µM (inactive)
dCTP pyrophosphatase 1
  Kd: > 30 µM (inactive)
[2]
  Kd: > 30 µM (inactive)
[3]
  Kd: > 30 µM (inactive)
[4]
  Kd: > 30 µM (inactive)
[5]
  Kd: > 30 µM (inactive)
[6]
  Kd: > 30 µM (inactive)
[7]
  Kd: > 30 µM (inactive)

## Cc1cc(Nc2nc(N[C@@H](C)c3ncc(F)cn3)ncc2Cl)n[nH]1 [AZD-1480]
[1]
  Kd: > 30 µM (inactive)
dCTP pyrophosphatase 1
  Kd: > 30 µM (inactive)
[2]
  Kd: > 30 µM (inactive)
[3]
  Kd: > 30 µM (inactive)
[4]
  Kd: > 30 µM (inactive)
[5]
  Kd: > 30 µM (inactive)
[6]
  Kd: > 30 µM (inactive)
[7]
  Kd: > 30 µM (inactive)

From ChEMBL document CHEMBL3991601, “The target landscape of clinical kinase drugs” (Science, 2017)
